The values below come from patent US20210070747A1, “2(1H)-QUINOLINONE DERIVATIVE” (priority 2017, published 2021).

Molecules are shown by their SMILES. In brackets after ≈: the same amount, converted by molar mass. Structures can show the parent of a compound that is named as a salt. Where two headings read alike, the source gives them in different places.

Broadly, the MIC is the lowest concentration found to suppress growth. High values mean a need for much substance, low ones inhibition by little substance. As usually defined, the IC50 is the concentration at which inhibition is half-maximal.

For assay [1], the system named is E. Coli ATCC 25922. As to the kind of experiment: Test for evaluating antibacterial activity (E. coli), broth microdilution MIC. Format: cell-based. The settings on record: Escherichia coli, ATCC25922; 35° C., 18 hours, cation-adjusted Mueller-Hinton medium. Summed up:
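Broth microdilution per modified CLSI method in cation-adjusted Mueller-Hinton medium. Inoculum from overnight heart infusion agar growth, McFarland 0.5 suspension diluted 10-fold; incubation 35° C for 18 hours. MIC taken as lowest drug concentration with no visible growth.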
In general terms: Dilution methods test growth across graded concentrations, often in twofold steps.

Assay [2] deals with T1, E. coli DNA gyrase (Escherichia coli, UniProt P0AES6).
T1 construct: made in house; host or cells: E. coli BL21 (DE3)
As to the kind of experiment: Test for evaluating the activity of inhibiting E. coli DNA gyrase enzyme (Method 1, supercoiling, Inspiralis enzyme). Format: biochemical. On the procedure: Test Example 1-1 Test for Evaluating the Activity of Inhibiting E. coli DNA Gyrase Enzyme (Method 1)
The enzymatic activity of E. coli DNA gyrase was measured by a method comprising reacting DNA gyrase and its substrate, relaxed pBR322 (Inspiralis), in the presence of ATP and detecting the post-reaction supercoiled pBR322/relaxed pBR322 ratio with H19 (Profoldin).
Specifically, to 1 ng/μL of relaxed pBR322, E. coli DNA gyrase enzyme (Inspiralis) was added at a final concentration of 0.006 U/μL and the mixture was incubated for 60 minutes at room temperature. This reaction was carried out in 20 mmol/L tris-HCl buffered solution (pH 8.0) comprising 0.5 mmol/L ATP, 0.005% bridge 35, 35 mmol/L ammonium acetate, 8 mmol/L magnesium chloride, 4.6% glycerol, and 1 mmol/L dithiothreitol. To the reaction mixture, H19 was added to bring the reaction to an end; thereafter, the supercoiled pBR322/relaxed pBR322 ratio was detected at excitation wavelength/emission wavelength=485 nm/535 nm. An inhibition curve was obtained by allowing the analyte compound to be present at varying concentrations during the reaction described above. […] The test results of interest are shown in [Table 20-1] and [Table 20-2].

Assay [3] has as its system N. gonorrhoeae ATCC 49226. Nature of the assay: Test for evaluating antibacterial activity (N. gonorrhoeae), broth microdilution MIC. Format: cell-based. The conditions noted are these: Neisseria gonorrhoeae, ATCC49226; 35° C., 24 hours, gonococcal broth. The gist of the method:
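Broth microdilution in gonococcal broth with 1% supplement C, inoculum from overnight chocolate II agar culture at McFarland 0.5 diluted 5-fold.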

The mark [4] stands for this setting: Method 1, read-out: E. Coli Gyrase supercoiling IC50.

As to `CNc1cccc2cc(C(=O)NC3CCN(c4ncc(C(=O)O)s4)CC3)c(=O)[nH]c12` [Example 3, 2-(4-{[8-(methylamino)-2-oxo-1,2-dihydroquinoline-3-carbonyl]amino}piperidine-1-yl)-1,3-thiazole-5-carboxylic acid], the minimal inhibitory concentration (MIC) is greater than 64 µg/mL in assay [1] and greater than 4 µg/mL in assay [3]. Also, the IC50 in assay [2] (setting [4]) is 124 nM.

With `CNc1cccc2cc(C(=O)Nc3ccccc3CN(C)C3CCCCC3)c(=O)[nH]c12` [Example 7, N-(2-[[Cyclohexyl(methyl)amino]methyl]phenyl)-8-(methylamino)-2-oxo-1,2-dihydroquinoline-3-carboxamide], the MIC in assay [1] was greater than 32 µg/mL; in assay [3], greater than 4 µg/mL. The IC50 in assay [2] (setting [4]) worked out at 3.35 nM.

`CNc1cccc2cc(C(=O)NCc3ccc(C(=O)O)cc3C)c(=O)[nH]c12` [Example 8, 3-methyl-4-({[8-(methylamino)-2-oxo-1,2-dihydroquinoline-3-carbonyl]amino}methyl)benzoic acid]: the minimal inhibitory concentration (MIC) in assay [1] was greater than 64 µg/mL; in assay [3] it was 4 µg/mL (≈ 10.9 µM). The concentration for half-maximal inhibition (IC50) in assay [2] (setting [4]) was determined as 30.1 nM.

`CNc1cccc2cc(C(=O)NCc3noc(=O)[nH]3)c(=O)[nH]c12` [Example 14, 8-(methylamino)-2-oxo-N-[(5-oxo-4,5-dihydro-1,2,4-oxadiazole-3-yl)methyl]-1,2-dihydroquinoline-3-carboxamide]: the half-maximal inhibitory concentration (IC50) in assay [2] (setting [4]) is 35500 nM. In assay [3], this compound came in with an MIC greater than 4 µg/mL.

For the compound `CNc1cccc2cc(C(=O)Nc3cccc(=O)[nH]3)c(=O)[nH]c12` [Example 16, 8-(methylamino)-2-oxo-N-(6-oxo-1,6-dihydro-pyridine-2-yl)-1,2-dihydroquinoline-3-carboxamide], the figures for the MIC in assay [1] and in assay [3] were greater than 64 µg/mL and greater than 4 µg/mL, respectively. Also, in assay [2] (setting [4]), the half-inhibitory concentration (IC50) came out at 131 nM.

Consider `CNc1nccc2cc(C(=O)Nc3ccc(C(=O)O)cc3)c(=O)[nH]c12` [Example 17, 4-[[8-(Methylamino)-2-oxo-1,2-dihydro-1,7-naphthyridine-3-carbonyl]amino]benzoic Acid], for which the figures for the minimum inhibitory concentration (MIC) in assay [1] and in assay [3] were greater than 64 µg/mL and greater than 1 µg/mL, respectively. Also, the IC50 in assay [2] (setting [4]) turned out to be 293 nM.

For `CNc1cccc2cc(C(=O)Nc3ccc(-c4noc(=O)[nH]4)cc3)c(=O)[nH]c12` [Example 18, 8-(methylamino)-2-oxo-N-[4-(5-oxo-4,5-dihydro-1,2,4-oxadiazole-3-yl)phenyl]-1,2-dihydroquinoline-3-carboxamide], the figures for the MIC in assay [1] and in assay [3] were greater than 0.5 µg/mL and 0.25 µg/mL (≈ 0.662 µM), respectively. The IC50 in assay [2] (setting [4]) stood at 15.7 nM.

As to `CNc1cccc2cc(C(=O)OCc3ccncc3N)c(=O)[nH]c12` [Example 19, (3-aminopyridine-4-yl)methyl 8-(methyl-amino)-2-oxo-1,2-dihydroquinoline-3-carboxylate], the minimum inhibitory concentration (MIC) in assay [1] is greater than 16 µg/mL; in assay [3] it was greater than 4 µg/mL. In addition, the IC50 in assay [2] (setting [4]) came out at 426 nM.

For `CN=S(C)(=O)c1ccc(NC(=O)c2cc3cccc(NC)c3[nH]c2=O)cc1` (stereo not drawn) [Example 22, N-[4-(N,S-dimethane-sulfonimidoyl)phenyl]-8-(methylamino)-2-oxo-1,2-dihydroquinoline-3-carboxamide], the MIC in assay [1] is greater than 8 µg/mL; in assay [3], greater than 4 µg/mL. For the same compound, the IC50 in assay [2] (setting [4]) was 174 nM.

`CNc1cccc2cc(C(=O)Nc3cnc(N4CCN(C)CC4)nc3)c(=O)[nH]c12` [Example 28, 8-(methylamino)-N-[2-(4 methylpiperazine-1-yl)pyrimidine-5-yl]-2-oxo-1,2-dihydroquinoline-3-carboxamide]: the minimum inhibitory concentration (MIC) in assay [1] was greater than 16 µg/mL; in assay [3], greater than 4 µg/mL. Also, the IC50 in assay [2] (setting [4]) was 32 nM.

`CNc1cc(F)cc2cc(C(=O)Nc3cnc(N4CCNCC4)nc3)c(=O)[nH]c12.Cl` [Example 55, 6-Fluoro-8-(methylamino)-2-oxo-N-[2-(piperazin-1-yl)pyrimidin-5-yl]-1,2-dihydroquinoline-3-carboxamide-hydrochloride] displayed an MIC in assay [1] greater than 16 µg/mL. In addition, the IC50 in assay [2] came to 14.7 nM.

Regarding `CNc1cc(F)cc2cc(C(=O)Nc3ccc(C(=O)NCC4CCN(CCN)CC4)cc3)c(=O)[nH]c12` [Example 57, N-(4-({[1-(2-aminoethyl)piperidine-4-yl]methyl}carbamoyl)phenyl]-6-fluoro-8-(methylamino)-2-oxo-1,2-dihydroquinoline-3-carboxamide-dihydrochloride], the MIC in assay [1] is greater than 16 µg/mL. For the same compound, the half-maximal inhibitory concentration (IC50) in assay [2] (setting [4]) turned out to be 3.62 nM.

In the case of `CNc1cc(F)cc2cc(C(=O)Nc3cnc(NCCN)nc3)c(=O)[nH]c12.O=CO` [Example 59, N-{2-[(2-aminoethyl)amino]pyrimidine-5-yl}-6-fluoro-8-(methylamino)-2-oxo-1,2-dihydroquinoline-3-carboxamide-formate], the minimal inhibitory concentration (MIC) in assay [1] is greater than 2 µg/mL. In assay [2], this compound displayed a 50% inhibitory concentration (IC50) of 14.7 nM.

In assay [1], `CNc1cc(F)cc2cc(C(=O)Nc3cnc(N4CC(N)C4)nc3)c(=O)[nH]c12.O=CO` [Example 60, N-[2-(3-aminoazetidine-1-yl)pyrimidine-5-yl]-6-fluoro-8-(methylamino)-2-oxo-1,2-dihydroquinoline-3-carboxamide-formate] registered an MIC greater than 32 µg/mL. Moreover, it took 11.8 nM to reach half-maximal inhibition in assay [2] (IC50).

In assay [1], `CNc1cc(F)cc2cc(C(=O)Nc3cnc(C(=O)OC)nc3)c(=O)[nH]c12` [Example 63, methyl 5-{[6-fluoro-8-(methylamino)-2-oxo-1,2-dihydroquinoline-3-carbonyl]amino}pyrimidine-2-carboxylate] registered an MIC greater than 16 µg/mL. Moreover, in assay [2], inhibition was half-maximal at 1.44 nM (IC50).

Compound `CNc1cc(F)cc2cc(C(=O)NCCc3cccnc3)c(=O)[nH]c12` [Example 64, 6-fluoro-8-(methylamino)-2-oxo-N-[2-(pyridine-3-yl)ethyl]-1,2-dihydroquinoline-3-carboxamide] showed an MIC in assay [1] greater than 8 µg/mL. In addition, the IC50 in assay [2] (setting [4]) was 44.7 nM.

As to `CNc1cc(F)cc2cc(C(=O)Nc3ccc(C(=O)N(C)CCN4CCOCC4)cc3)c(=O)[nH]c12` [Example 67, 6-fluoro-8-(methylamino)-N-(4-{methyl[2-(morpholine-4-yl)ethyl]carbamoyl}phenyl)-2-oxo-1,2-dihydroquinoline-3-carboxamide], the MIC in assay [1] was greater than 16 µg/mL. Besides, the IC50 in assay [2] (setting [4]) worked out at 6.36 nM.

`CNc1cc(F)cc2cc(C(=O)Nc3ccc(C(=O)NCCN)cc3)c(=O)[nH]c12.Cl` [Example 68, N-(4-[(2-aminoethyl)carbamoyl]phenyl}-6-fluoro-8-(methylamino)-2-oxo-1,2-dihydroquinoline-3-carboxamide-hydrochloride] yielded an MIC in assay [1] greater than 8 µg/mL. For the same compound, the IC50 in assay [2] is 9.4 nM.

In turn, `CNc1cc(F)cc2cc(C(=O)Nc3cnc(NCCN4CCOCC4)nc3)c(=O)[nH]c12` [Example 69, 6-fluoro-8-(methylamino)-N-(2-{[2-(morpholine-4-yl)ethyl]amino}pyrimidine-5-yl)-2-oxo-1,2-dihydroquinoline-3-carboxamide] came in with a minimal inhibitory concentration (MIC) in assay [1] of 8 µg/mL (≈ 18.1 µM). Moreover, in assay [2] (setting [4]), the 50% inhibitory concentration (IC50) worked out at 7 nM.

With `CNc1cc(F)cc2cc(C(=O)Nc3cnc(C(=O)NCCO)nc3)c(=O)[nH]c12` [Example 71, 6-Fluoro-N-[2-[(2-hydroxyethyl)carbamoyl]pyrimidin-5-yl]-8-(methylamino)-2-oxo-1,2-dihydroquinoline-3-carboxamide], the MIC in assay [1] is greater than 8 µg/mL. For the same compound, the IC50 in assay [2] (setting [4]) stood at 0.88 nM.

For `CNc1cc(F)cc2cc(C(=O)Nc3cnccc3C)c(=O)[nH]c12` [Example 73, 6-fluoro-8-(methylamino)-N-(4-methylpyridine-3-yl)-2-oxo-1,2-dihydroquinoline-3-carboxamide], the minimal inhibitory concentration (MIC) in assay [1] is greater than 8 µg/mL. Further, the IC50 in assay [2] (setting [4]) was 23 nM.

`CNc1cc(F)cc2cc(C(=O)Nc3ccc(C(=O)O)cc3CNCCO)c(=O)[nH]c12` [Example 74, 4-{[6-fluoro-8-(methylamino)-2-oxo-1,2-dihydroquinoline-3-catbonyl]amino}-3-{[(2-hydroxyethyl)amino]methyl} benzoic acid-hydrochloride]: the minimal inhibitory concentration (MIC) in assay [1] was greater than 64 µg/mL. Also, the IC50 in assay [2] (setting [4]) amounted to 129 nM.

`CNc1cc(F)cc2cc(C(=O)Nc3ccc(C(=O)NCCN4CCOCC4)cc3CN(C)C3CCCCC3)c(=O)[nH]c12` [Example 75, N-(2-{[cyclohexyl(methyl)amino]methyl}-4-{[2-(morpholine-4-yl)ethyl]carbamoyl}phenyl)-6-fluoro-8-(methylamino)-2-oxo-1,2-dihydroquinoline-3-carboxamide] gave an MIC in assay [1] of 8 µg/mL (≈ 13.5 µM). In assay [2] (setting [4]), the concentration for half-maximal inhibition (IC50) came out at 0.25 nM.

In turn, `CNc1cc(F)cc2cc(C(=O)Nc3cnc(OCCN4CCOCC4)nc3)c(=O)[nH]c12` [Example 80, 6-fluoro-8-(methylamino)-N-{2-[2-(morpholine-4-yl)ethoxy]pyrimidine-5-yl}-2-oxo-1,2-dihydroquinoline-3-carboxamide] came in with a minimum inhibitory concentration (MIC) in assay [1] greater than 16 µg/mL. For the same compound, the 50% inhibitory concentration (IC50) in assay [2] (setting [4]) was 2.5 nM.
